{"source": "paper PMC7265341", "about": "“Quantifying CDK inhibitor selectivity in live cells” (Nature Communications, 2020)", "key": {"CDK9/Cyclin K": {"target": "CDK9/Cyclin K (Homo sapiens, UniProt P50750)", "sequence (P50750 whole entry)": "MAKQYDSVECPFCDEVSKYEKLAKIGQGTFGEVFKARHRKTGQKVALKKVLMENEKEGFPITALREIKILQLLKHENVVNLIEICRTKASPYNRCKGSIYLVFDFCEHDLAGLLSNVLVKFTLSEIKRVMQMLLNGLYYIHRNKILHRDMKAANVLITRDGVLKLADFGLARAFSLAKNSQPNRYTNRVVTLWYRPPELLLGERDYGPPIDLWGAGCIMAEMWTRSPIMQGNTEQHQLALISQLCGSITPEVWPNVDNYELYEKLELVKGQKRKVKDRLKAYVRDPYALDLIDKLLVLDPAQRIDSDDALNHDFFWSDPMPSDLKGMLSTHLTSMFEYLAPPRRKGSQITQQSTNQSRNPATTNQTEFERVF", "sequence (O75909 whole entry partner)": "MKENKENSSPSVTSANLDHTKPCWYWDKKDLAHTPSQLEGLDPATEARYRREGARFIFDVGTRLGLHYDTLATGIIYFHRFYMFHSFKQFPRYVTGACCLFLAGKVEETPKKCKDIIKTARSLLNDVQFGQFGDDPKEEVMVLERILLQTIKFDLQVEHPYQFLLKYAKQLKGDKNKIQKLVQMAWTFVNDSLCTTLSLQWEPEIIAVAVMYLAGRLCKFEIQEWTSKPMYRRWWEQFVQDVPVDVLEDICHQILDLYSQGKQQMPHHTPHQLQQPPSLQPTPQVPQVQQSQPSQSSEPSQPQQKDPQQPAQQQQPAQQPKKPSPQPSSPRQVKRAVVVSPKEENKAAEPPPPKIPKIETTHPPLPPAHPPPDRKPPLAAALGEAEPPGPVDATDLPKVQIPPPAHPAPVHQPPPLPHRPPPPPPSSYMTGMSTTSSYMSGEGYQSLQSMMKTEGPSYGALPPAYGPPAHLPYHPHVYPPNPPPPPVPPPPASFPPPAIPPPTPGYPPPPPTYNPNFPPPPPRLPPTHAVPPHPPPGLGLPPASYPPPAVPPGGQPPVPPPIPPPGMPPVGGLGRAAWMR", "assay": "NanoBRET live-cell target engagement, NanoLuc-CDK9/Cyclin K in HEK-293", "type": "binding", "details": "CDK9/K, read-out: Inhibition at 10µM (%)"}, "CDK6/Cyclin D1": {"target": "CDK6/Cyclin D1 (Homo sapiens, UniProt Q00534)", "sequence (Q00534 whole entry)": "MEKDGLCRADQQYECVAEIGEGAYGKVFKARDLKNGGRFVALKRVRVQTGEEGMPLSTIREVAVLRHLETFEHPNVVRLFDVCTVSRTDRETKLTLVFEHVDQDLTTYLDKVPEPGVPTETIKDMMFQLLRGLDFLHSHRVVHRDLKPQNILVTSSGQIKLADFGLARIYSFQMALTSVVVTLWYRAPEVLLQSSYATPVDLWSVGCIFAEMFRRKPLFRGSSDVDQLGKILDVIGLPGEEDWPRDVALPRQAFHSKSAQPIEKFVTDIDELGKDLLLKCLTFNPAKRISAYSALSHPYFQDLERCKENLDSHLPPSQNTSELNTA", "sequence (P24385 whole entry partner)": "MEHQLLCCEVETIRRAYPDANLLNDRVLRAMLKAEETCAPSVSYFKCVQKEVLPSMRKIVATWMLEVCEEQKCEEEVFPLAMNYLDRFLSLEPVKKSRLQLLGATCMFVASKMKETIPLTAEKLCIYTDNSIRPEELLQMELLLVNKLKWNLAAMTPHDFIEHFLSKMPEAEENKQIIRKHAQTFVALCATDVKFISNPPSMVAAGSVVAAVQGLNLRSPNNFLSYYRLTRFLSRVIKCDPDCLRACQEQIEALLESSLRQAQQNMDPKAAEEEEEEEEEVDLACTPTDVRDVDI", "assay": "NanoBRET live-cell target engagement, NanoLuc-CDK6/Cyclin D1 in HEK-293", "type": "binding", "details": "CDK6/D1, read-out: Inhibition at 10µM (%)"}, "CDK10/Cyclin L2": {"target": "CDK10/Cyclin L2 (Homo sapiens, UniProt Q15131)", "sequence (Q15131 whole entry)": "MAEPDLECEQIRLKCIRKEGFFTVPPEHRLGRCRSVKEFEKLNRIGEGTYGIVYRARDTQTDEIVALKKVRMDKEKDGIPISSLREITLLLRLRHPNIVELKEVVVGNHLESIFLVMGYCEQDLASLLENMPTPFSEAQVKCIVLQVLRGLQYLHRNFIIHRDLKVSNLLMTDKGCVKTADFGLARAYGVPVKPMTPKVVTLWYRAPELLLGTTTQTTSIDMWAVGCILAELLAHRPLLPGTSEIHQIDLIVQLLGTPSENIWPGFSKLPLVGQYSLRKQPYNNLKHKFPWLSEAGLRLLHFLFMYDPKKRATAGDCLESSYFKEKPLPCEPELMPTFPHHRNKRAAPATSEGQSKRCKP", "assay": "NanoBRET live-cell target engagement, CDK10-NanoLuc/Cyclin L2 in HEK-293", "details": "read-out: Inhibition at 10µM (%), CDK10/L2"}, "CDK11B/Cyclin L2": {"target": "CDK11B/Cyclin L2 (Homo sapiens, UniProt P21127)", "sequence (P21127 1-782 isoform P21127-2)": "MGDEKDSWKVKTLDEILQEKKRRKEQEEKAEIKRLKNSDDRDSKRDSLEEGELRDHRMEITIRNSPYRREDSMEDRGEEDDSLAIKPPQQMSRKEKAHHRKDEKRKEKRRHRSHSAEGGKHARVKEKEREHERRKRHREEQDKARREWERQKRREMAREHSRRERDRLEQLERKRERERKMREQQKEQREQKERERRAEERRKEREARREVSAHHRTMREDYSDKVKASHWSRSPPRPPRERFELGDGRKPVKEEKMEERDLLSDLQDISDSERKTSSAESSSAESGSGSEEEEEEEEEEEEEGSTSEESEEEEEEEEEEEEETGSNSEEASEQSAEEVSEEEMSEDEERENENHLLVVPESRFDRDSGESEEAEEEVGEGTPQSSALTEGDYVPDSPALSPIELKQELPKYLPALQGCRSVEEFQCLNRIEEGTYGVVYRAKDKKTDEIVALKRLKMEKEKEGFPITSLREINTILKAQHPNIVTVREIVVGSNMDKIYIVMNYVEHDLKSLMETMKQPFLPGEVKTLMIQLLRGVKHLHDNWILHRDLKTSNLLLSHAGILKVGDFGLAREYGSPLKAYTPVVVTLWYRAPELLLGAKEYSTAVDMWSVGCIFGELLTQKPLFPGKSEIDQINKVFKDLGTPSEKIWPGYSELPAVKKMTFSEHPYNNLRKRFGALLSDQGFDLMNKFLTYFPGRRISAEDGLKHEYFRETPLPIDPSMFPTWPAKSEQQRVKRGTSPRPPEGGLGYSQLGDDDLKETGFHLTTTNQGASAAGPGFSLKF", "assay": "NanoBRET live-cell target engagement, CDK11B-NanoLuc/Cyclin L2 in HEK-293", "type": "binding", "details": "CDK11b/L2, read-out: Inhibition at 10µM (%)"}, "CDK12/Cyclin K": {"target": "CDK12/Cyclin K (Homo sapiens, UniProt Q9NYV4)", "sequence (Q9NYV4 1-1481 isoform Q9NYV4-2)": "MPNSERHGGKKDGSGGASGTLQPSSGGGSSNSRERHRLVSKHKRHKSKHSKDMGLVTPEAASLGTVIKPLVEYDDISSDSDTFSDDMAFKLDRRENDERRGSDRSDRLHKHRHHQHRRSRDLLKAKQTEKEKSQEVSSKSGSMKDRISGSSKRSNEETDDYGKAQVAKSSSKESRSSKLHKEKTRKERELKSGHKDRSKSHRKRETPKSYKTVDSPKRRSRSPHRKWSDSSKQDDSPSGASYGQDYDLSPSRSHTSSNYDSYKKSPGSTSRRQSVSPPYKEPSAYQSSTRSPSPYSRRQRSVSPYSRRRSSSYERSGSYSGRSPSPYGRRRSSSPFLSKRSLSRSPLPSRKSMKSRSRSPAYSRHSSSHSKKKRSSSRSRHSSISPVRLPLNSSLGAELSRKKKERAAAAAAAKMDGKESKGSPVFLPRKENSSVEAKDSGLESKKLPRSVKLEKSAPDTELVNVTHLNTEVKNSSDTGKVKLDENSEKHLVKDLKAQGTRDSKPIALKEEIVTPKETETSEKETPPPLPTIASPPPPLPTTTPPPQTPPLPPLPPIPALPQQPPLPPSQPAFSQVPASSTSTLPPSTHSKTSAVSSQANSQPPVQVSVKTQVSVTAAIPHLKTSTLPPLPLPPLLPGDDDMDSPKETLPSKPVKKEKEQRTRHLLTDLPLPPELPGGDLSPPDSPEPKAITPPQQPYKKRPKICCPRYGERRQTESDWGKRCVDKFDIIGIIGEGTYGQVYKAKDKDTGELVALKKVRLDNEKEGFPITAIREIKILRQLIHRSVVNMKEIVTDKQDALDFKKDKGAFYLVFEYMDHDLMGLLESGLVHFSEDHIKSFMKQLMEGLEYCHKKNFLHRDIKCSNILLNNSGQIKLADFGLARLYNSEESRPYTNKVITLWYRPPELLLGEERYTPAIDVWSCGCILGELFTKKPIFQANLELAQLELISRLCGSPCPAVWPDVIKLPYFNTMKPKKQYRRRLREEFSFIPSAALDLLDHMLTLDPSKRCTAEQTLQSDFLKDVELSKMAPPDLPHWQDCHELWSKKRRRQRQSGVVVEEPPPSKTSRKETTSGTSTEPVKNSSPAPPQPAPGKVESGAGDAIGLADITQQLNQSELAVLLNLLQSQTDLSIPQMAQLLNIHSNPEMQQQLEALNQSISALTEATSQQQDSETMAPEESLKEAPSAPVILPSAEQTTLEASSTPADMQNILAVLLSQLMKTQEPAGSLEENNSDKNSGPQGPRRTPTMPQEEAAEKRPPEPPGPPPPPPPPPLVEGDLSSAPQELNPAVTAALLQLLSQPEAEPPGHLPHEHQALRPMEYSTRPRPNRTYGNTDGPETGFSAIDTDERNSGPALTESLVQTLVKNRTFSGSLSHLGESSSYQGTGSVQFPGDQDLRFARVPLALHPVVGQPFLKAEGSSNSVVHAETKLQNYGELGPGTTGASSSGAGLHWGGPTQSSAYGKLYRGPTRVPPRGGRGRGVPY", "sequence (O75909 whole entry partner)": "as the sequence (O75909 whole entry partner) above", "assay": "NanoBRET live-cell target engagement, CDK12-NanoLuc/Cyclin K in HEK-293", "type": "binding", "details": "for inhibition at 10 µM: CDK12/K, read-out: Inhibition at 10µM (%)"}, "CDK3/Cyclin E1": {"target": "CDK3/Cyclin E1 (Homo sapiens, UniProt Q00526)", "assay": "NanoBRET live-cell target engagement, CDK3-NanoLuc/Cyclin E1 in HEK-293", "type": "binding", "details": "CDK3/E1, read-out: Inhibition at 10µM (%)"}, "CDK20/Cyclin H": {"target": "CDK20/Cyclin H (Homo sapiens, UniProt Q8IZL9)", "assay": "NanoBRET live-cell target engagement, NanoLuc-CDK20/Cyclin H in HEK-293", "type": "binding", "details": "CDK20/H, read-out: Inhibition at 10µM (%)"}, "CDK8/Cyclin C": {"target": "CDK8/Cyclin C (Homo sapiens, UniProt P49336)", "sequence (P49336 whole entry)": "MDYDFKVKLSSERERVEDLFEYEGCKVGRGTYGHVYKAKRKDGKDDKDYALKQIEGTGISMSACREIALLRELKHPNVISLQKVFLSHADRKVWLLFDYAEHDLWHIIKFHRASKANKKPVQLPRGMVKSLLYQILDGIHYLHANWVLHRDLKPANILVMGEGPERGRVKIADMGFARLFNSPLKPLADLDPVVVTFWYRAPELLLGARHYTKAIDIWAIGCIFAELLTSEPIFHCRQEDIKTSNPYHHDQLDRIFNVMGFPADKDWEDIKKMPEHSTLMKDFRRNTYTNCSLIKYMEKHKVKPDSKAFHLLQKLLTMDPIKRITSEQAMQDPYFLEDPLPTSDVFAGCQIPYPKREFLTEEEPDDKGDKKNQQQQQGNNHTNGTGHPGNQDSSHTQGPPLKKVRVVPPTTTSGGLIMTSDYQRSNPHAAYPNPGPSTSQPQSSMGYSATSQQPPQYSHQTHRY", "sequence (P24863 whole entry partner)": "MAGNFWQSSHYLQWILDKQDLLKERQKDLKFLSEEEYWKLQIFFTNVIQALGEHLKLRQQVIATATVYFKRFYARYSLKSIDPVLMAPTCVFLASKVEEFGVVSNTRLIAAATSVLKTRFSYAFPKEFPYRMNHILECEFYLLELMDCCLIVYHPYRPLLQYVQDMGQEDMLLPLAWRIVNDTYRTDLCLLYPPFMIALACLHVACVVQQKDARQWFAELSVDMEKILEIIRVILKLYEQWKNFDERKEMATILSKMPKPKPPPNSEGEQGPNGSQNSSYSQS", "assay": "NanoBRET live-cell target engagement, NanoLuc-CDK8/Cyclin C in HEK-293", "type": "binding", "details": "CDK8/C, read-out: Inhibition at 10µM (%)"}, "CDK1/Cyclin E1": {"target": "CDK1/Cyclin E1 (Homo sapiens, UniProt P06493)", "assay": "NanoBRET live-cell target engagement, CDK1-NanoLuc/Cyclin E1 in HEK-293", "type": "binding", "details": "CDK1/E1, read-out: Inhibition at 10µM (%)"}, "CDK11A/Cyclin L2": {"target": "T1, CDK11A/Cyclin L2 (Homo sapiens, UniProt Q9UQ88)", "T1 sequence (Q9UQ88 1-783)": "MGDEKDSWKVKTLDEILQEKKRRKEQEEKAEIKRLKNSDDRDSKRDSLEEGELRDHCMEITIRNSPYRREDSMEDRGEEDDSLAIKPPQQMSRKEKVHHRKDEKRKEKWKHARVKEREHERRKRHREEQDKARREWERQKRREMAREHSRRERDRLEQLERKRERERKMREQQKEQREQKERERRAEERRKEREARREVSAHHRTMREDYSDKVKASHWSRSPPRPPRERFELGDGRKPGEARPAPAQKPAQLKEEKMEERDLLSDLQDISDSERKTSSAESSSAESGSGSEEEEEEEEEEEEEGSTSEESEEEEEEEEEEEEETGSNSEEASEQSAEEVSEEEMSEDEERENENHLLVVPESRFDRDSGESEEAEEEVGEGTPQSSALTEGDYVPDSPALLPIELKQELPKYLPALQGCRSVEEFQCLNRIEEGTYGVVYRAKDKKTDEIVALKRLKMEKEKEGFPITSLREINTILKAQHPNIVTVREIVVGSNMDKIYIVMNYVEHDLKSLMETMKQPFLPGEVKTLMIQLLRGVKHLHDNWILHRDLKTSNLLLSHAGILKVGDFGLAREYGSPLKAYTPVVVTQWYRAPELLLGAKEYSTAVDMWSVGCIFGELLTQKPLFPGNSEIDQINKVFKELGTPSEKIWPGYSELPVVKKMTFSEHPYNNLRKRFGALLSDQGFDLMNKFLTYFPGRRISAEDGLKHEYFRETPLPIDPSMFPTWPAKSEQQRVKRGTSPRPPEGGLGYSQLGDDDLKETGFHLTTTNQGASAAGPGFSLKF", "assay": "NanoBRET live-cell target engagement, CDK11A-NanoLuc/Cyclin L2 in HEK-293", "type": "binding", "details": "CDK11a/L2, read-out: Inhibition at 10µM (%)"}, "CDK19/Cyclin C": {"target": "CDK19/Cyclin C (Homo sapiens, UniProt Q9BWU1)", "assay": "NanoBRET live-cell target engagement, NanoLuc-CDK19/Cyclin C in HEK-293", "details": "for inhibition at 10 µM: read-out: Inhibition at 10µM (%), CDK19/C"}, "CDK13/Cyclin K": {"target": "CDK13/Cyclin K (Homo sapiens, UniProt Q14004)", "assay": "NanoBRET live-cell target engagement, CDK13-NanoLuc/Cyclin K in HEK-293", "type": "binding", "details": "for inhibition at 10 µM: CDK13/K, read-out: Inhibition at 10µM (%)"}, "CDK4/Cyclin D1": {"target": "CDK4/Cyclin D1 (Homo sapiens, UniProt P11802)", "assay": "NanoBRET live-cell target engagement, NanoLuc-CDK4/Cyclin D1 in HEK-293", "type": "binding", "details": "CDK4/D1, read-out: Inhibition at 10µM (%)"}, "CDK5/CDK5R1": {"target": "CDK5/CDK5R1 (Homo sapiens, UniProt Q00535)", "assay": "NanoBRET live-cell target engagement, CDK5-NanoLuc/CDK5R1 in HEK-293", "type": "binding", "details": "CDK5/CDK5R1, read-out: Inhibition at 10µM (%)"}, "CDK2/Cyclin E1": {"target": "CDK2/Cyclin E1 (Homo sapiens, UniProt P24941)", "assay": "NanoBRET live-cell target engagement, CDK2-NanoLuc/Cyclin E1 in HEK-293", "type": "binding", "details": "CDK2/E1, read-out: Inhibition at 10µM (%)"}}, "note": "Read-outs that look alike come from different tables or passages of the source."}
{"smiles": "CN1CC[C@H](c2c(O)cc(O)c3c(=O)cc(-c4ccccc4Cl)oc23)[C@H](O)C1", "note": "[Flavopiridol]", "values": [{"measurement": "inhibition at 10 µM", "setting": "CDK9/Cyclin K; average", "value": 97.8, "unit": "%"}, {"measurement": "inhibition at 10 µM", "setting": "CDK9/Cyclin K; experiment 1", "value": 97.5, "unit": "%"}, {"measurement": "inhibition at 10 µM", "setting": "CDK9/Cyclin K; experiment 2", "value": 98, "unit": "%"}, {"measurement": "inhibition at 10 µM", "setting": "CDK6/Cyclin D1; average", "value": 86.6, "unit": "%"}, {"measurement": "inhibition at 10 µM", "setting": "CDK6/Cyclin D1; experiment 1", "value": 83.3, "unit": "%"}, {"measurement": "inhibition at 10 µM", "setting": "CDK6/Cyclin D1; experiment 2", "value": 89.9, "unit": "%"}, {"measurement": "inhibition at 10 µM", "setting": "CDK10/Cyclin L2; average", "value": 38.5, "unit": "%"}, {"measurement": "inhibition at 10 µM", "setting": "CDK10/Cyclin L2; experiment 1", "value": 45.2, "unit": "%"}, {"measurement": "inhibition at 10 µM", "setting": "CDK10/Cyclin L2; experiment 2", "value": 31.9, "unit": "%"}, {"measurement": "inhibition at 10 µM", "setting": "CDK11B/Cyclin L2; average", "value": 47.4, "unit": "%"}, {"measurement": "inhibition at 10 µM", "setting": "CDK11B/Cyclin L2; experiment 1", "value": 40.9, "unit": "%"}, {"measurement": "inhibition at 10 µM", "setting": "CDK11B/Cyclin L2; experiment 2", "value": 54, "unit": "%"}, {"measurement": "inhibition at 10 µM", "setting": "CDK12/Cyclin K; average", "value": 48.6, "unit": "%"}, {"measurement": "inhibition at 10 µM", "setting": "CDK12/Cyclin K; experiment 1", "value": 51.7, "unit": "%"}, {"measurement": "inhibition at 10 µM", "setting": "CDK12/Cyclin K; experiment 2", "value": 45.6, "unit": "%"}, {"measurement": "receptor occupancy at 10 µM", "setting": "CDK12/Cyclin K; primary screen, live HEK-293, read-out: CDK12 occupancy at 10 µM", "value": "~50", "unit": "%"}, {"measurement": "inhibition at 10 µM", "setting": "CDK3/Cyclin E1; average", "value": 80.6, "unit": "%"}, {"measurement": "inhibition at 10 µM", "setting": "CDK3/Cyclin E1; experiment 1", "value": 78, "unit": "%"}, {"measurement": "inhibition at 10 µM", "setting": "CDK3/Cyclin E1; experiment 2", "value": 83.3, "unit": "%"}, {"measurement": "inhibition at 10 µM", "setting": "CDK20/Cyclin H; experiment 1", "value": 6.3, "unit": "%"}, {"measurement": "inhibition at 10 µM", "setting": "CDK20/Cyclin H; experiment 2", "value": 6.5, "unit": "%"}, {"measurement": "inhibition at 10 µM", "setting": "CDK8/Cyclin C; average", "value": 95.7, "unit": "%"}, {"measurement": "inhibition at 10 µM", "setting": "CDK8/Cyclin C; experiment 1", "value": 96.6, "unit": "%"}, {"measurement": "inhibition at 10 µM", "setting": "CDK8/Cyclin C; experiment 2", "value": 94.9, "unit": "%"}, {"measurement": "inhibition at 10 µM", "setting": "CDK1/Cyclin E1; average", "value": 72.2, "unit": "%"}, {"measurement": "inhibition at 10 µM", "setting": "CDK1/Cyclin E1; experiment 1", "value": 65.7, "unit": "%"}, {"measurement": "inhibition at 10 µM", "setting": "CDK1/Cyclin E1; experiment 2", "value": 78.8, "unit": "%"}, {"measurement": "inhibition at 10 µM", "setting": "CDK11A/Cyclin L2; average", "value": 27.7, "unit": "%"}, {"measurement": "inhibition at 10 µM", "setting": "CDK11A/Cyclin L2; experiment 1", "value": 30.2, "unit": "%"}, {"measurement": "inhibition at 10 µM", "setting": "CDK11A/Cyclin L2; experiment 2", "value": 25.2, "unit": "%"}, {"measurement": "IC50", "setting": "CDK19/Cyclin C; IC50 (nM), CDK19/C, experiment 1", "value": 19, "unit": "nM"}, {"measurement": "IC50", "setting": "CDK19/Cyclin C; IC50 (nM), CDK19/C, experiment 2", "value": 18, "unit": "nM"}, {"measurement": "IC50", "setting": "CDK19/Cyclin C; IC50 (nM), CDK19/Y (so in the source), average (± SEM where n=3)", "value": 19, "unit": "nM"}, {"measurement": "IC50", "setting": "CDK19/Cyclin C; IC50 for CDK/cyclin complexes, CDK19/C, live HEK-293, 2 h, mean ± S.E.M. (n=3) or mean (n=2)", "value": 19, "unit": "nM"}, {"measurement": "inhibition at 10 µM", "setting": "CDK19/Cyclin C; average", "value": 95.8, "unit": "%"}, {"measurement": "inhibition at 10 µM", "setting": "CDK19/Cyclin C; experiment 1", "value": 98, "unit": "%"}, {"measurement": "inhibition at 10 µM", "setting": "CDK19/Cyclin C; experiment 2", "value": 93.5, "unit": "%"}, {"measurement": "inhibition at 10 µM", "setting": "CDK13/Cyclin K; average", "value": 28, "unit": "%"}, {"measurement": "inhibition at 10 µM", "setting": "CDK13/Cyclin K; experiment 1", "value": 33.4, "unit": "%"}, {"measurement": "inhibition at 10 µM", "setting": "CDK13/Cyclin K; experiment 2", "value": 22.5, "unit": "%"}, {"measurement": "receptor occupancy at 10 µM", "setting": "CDK13/Cyclin K; primary screen, live HEK-293", "value": "~50", "unit": "%"}, {"measurement": "inhibition at 10 µM", "setting": "CDK4/Cyclin D1; average", "value": 90.8, "unit": "%"}, {"measurement": "inhibition at 10 µM", "setting": "CDK4/Cyclin D1; experiment 1", "value": 88.6, "unit": "%"}, {"measurement": "inhibition at 10 µM", "setting": "CDK4/Cyclin D1; experiment 2", "value": 93, "unit": "%"}, {"measurement": "inhibition at 10 µM", "setting": "CDK5/CDK5R1; average", "value": 83.1, "unit": "%"}, {"measurement": "inhibition at 10 µM", "setting": "CDK5/CDK5R1; experiment 1", "value": 85, "unit": "%"}, {"measurement": "inhibition at 10 µM", "setting": "CDK5/CDK5R1; experiment 2", "value": 81.1, "unit": "%"}, {"measurement": "inhibition at 10 µM", "setting": "CDK2/Cyclin E1; average", "value": 75, "unit": "%"}, {"measurement": "inhibition at 10 µM", "setting": "CDK2/Cyclin E1; experiment 1", "value": 74.5, "unit": "%"}, {"measurement": "inhibition at 10 µM", "setting": "CDK2/Cyclin E1; experiment 2", "value": 75.4, "unit": "%"}]}
